Experimental data taken from publication PMC10301845, “Characterization of a Novel M4 PAM PET Radioligand [11C]PF06885190 in Nonhuman Primates (NHP)” (Molecules, 2023).

Assay: Radiometabolite analysis in NHP blood plasma (gradient HPLC)
Assay type: in vivo, cynomolgus monkey
Method: Radiometabolites in NHP blood plasma were analyzed following a previously published method. A reverse-phase HPLC system with an UV absorbance detector (ƛ = 254 nm) coupled to a radio detector was used to determine the percentages of radioactivity corresponding to [^11C]PF06885190 and its radioactive metabolites during whole PET measurement. Arterial blood samples (0.7–1.5 mL) were obtained using an automated blood sampling system from the monkey at different time points such as 2, 5, 15, 30 and 60 min after injection of [^11C]PF06885190 following a previously described method. Plasma was separated from collected blood by centrifuging at 4000 rpm for 2 min. The obtained plasma was diluted with 1.4 times volume of acetonitrile and then centrifuged at 6000 rpm for 4 min. The extract was separated from the pellet and was diluted with water (3 mL) before being injected into the HPLC system. The HPLC system was coupled to an Agilent binary pump (Agilent 1200 series) which was connected to a manual injection valve (7725i, Rheodyne), a 5.0 mL loop, and a radiation detector (Oyokoken, S-2493Z) housed in a shield of 50 mm thick lead. A semi-preparative reverse-phase, an ACE 5µm C18 HL column ([…]), was used to achieve the chromatographic separation (Figure S4A,B, Supplementary Material) of the radiometabolites from the unchanged parent compound [^11C]PF06885190 by gradient elution. Acetonitrile (A) and 0.1 M amoniumformate (B) were used as the mobile phase at flow rate 5.0 mL/min, according to the following program: 0−4.0 min, (A/B) 40:60 → 90:10 v/v; 4.0−6.0 min, (A/B) 90:10 v/v. a radioactive peak corresponding to [^11C]PF06885190 eluted from the HPLC column was integrated and the area was expressed as a percentage of the sum of the areas of all detected radioactive compounds. To calculate the recovery of radioactivity from the system, the eluate from the HPLC column was measured in a capintec dose calibrator and divided by the amount of total radioactivity injected into the HPLC.

parent compound in plasma (5 min after injection): approximately 95%
parent compound in plasma (60 min, after pretreatment with CVL-231): about 20%
parent compound in plasma (60 min, after pretreatment with donepezil): about 30%
parent compound in plasma (60 min, baseline condition): about 20%
SMILES: Cc1nc(N[11CH3])c2c(c1C)CN(C(=O)C[C@H]1C[C@@H]1c1ccc(F)nc1)C2 [[^11C]PF06885190]
